# How the values were obtained:
# [1] = tested on: broccoli sprout-derived myrosinase; experiment: Consumption of glucoraphanin as a function of the ascorbic acid concentration (hydrolysis by myrosinase); assay type: biochemical
# Procedure: About 250 mg of broccoli seed extract containing about 12% (w/w) glucoraphanin were subjected to hydrolysis by a fixed concentration of broccoli sprout-derived myrosinase in the presence of variable concentration of ascorbic acid, ranging from 0 to 600 μmoles/Liter. The reaction mixtures were thermostated at 38° C.; aliquots were withdrawn every 15 minutes for 60 minutes, and concentration of glucoraphanin determined chromatographically. The rate of glucoraphanin consumption was interpreted as the rate its conversion to sulforaphane. Graphical representation of glucoraphanin content reduction as a function of increasing ascorbic acid concentration results in a series of linear plots; the slopes of the linear regression lines reflect the rate of glucoraphanin consumption, in μmoles/minute. It is apparent that in the presence of 600 μmoles/Liter concentration of ascorbic acid, the reaction rate increased 13-fold relative to that which proceeded in the absence of modulatory effects of ascorbic acid.
# myrosinase [2] = experiment: Conversion of glucoraphanin to sulforaphane in the presence of Simulated Intestinal Fluid; assay type: biochemical, broccoli; details: 0.25 to 1.00 mmol/Liter ascorbic acid, 38° C., 2 hours
# Procedure: Simulated Intestinal Fluid (SIF) powder, a commercially supplied concentrate closely approximating the human intestinal content in terms of composition, pH and ionic strength, was used. The experiment utilized a USP Dissolution Apparatus 2 (paddles), where into six dissolution vessels 500 mL of Simulated Intestinal Fluid was dispensed, along with 150 mg of freeze-dried broccoli sprout powder as a source of myrosinase. In vessels 1-4, the concentration of ascorbic acid was varied from 0.25 to 1.00 mmol/Liter; in vessel 5, in addition to 1 mmol/Liter ascorbic acid, 3.125 g of pancreatin (8×USP) was suspended; in vessel 6, in addition to 1 mmol/Liter ascorbic acid, and 3.125 g of pancreatin (8×USP), a doubled amount of freeze-dried broccoli sprout powder (300 mg) was added. After vessels were brought to 38° C., 250 mg of glucoraphanin-rich (12%, w/w) broccoli seed extract was added to each, and the resulting suspensions were stirred at 75 RPM for 2 hours. Aliquots were withdrawn every 15 minutes, and assayed for sulforaphane.
# myrosinase [3] = experiment: Equimolar conversion of glucoraphanin to sulforaphane, role of ascorbic acid in modulating myrosinase activity; assay type: biochemical, broccoli; details: control sample, without ascorbic acid
# Procedure: A two-part experiment was conducted to further elucidate the role of ascorbic acid in modulating myrosinase activity. […] A control sample contained no ascorbic acid, and the enzymatic conversion proceeded unassisted by a co-factor. PART 1. […] PART 2. While keeping the amount of broccoli seed extract fixed at 250 mg, the concentration of ascorbic acid was varied from 0.4 mmol/Liter to 3.8 mmol/Liter. The table below presents glucoraphanin and sulforaphane expressed in μmoles.
# chondrocytes = details: IL-1β-induced NF-κB pathway; cited from earlier work
compound,measurement,setting,value
"O=C1O[C@H]([C@@H](O)CO)C(O)=C1O [Ascorbic Acid, ascorbic acid]",Slope (rate of glucoraphanin consumption),"[1]; 0 μM ascorbic acid, linear regression 0-60 min",-0.09293 µmol/min
same,Glucoraphanin (GR) content,"[1]; 0 μM ascorbic acid, time 15 min, 38° C.",92.24 µmol
same,Glucoraphanin (GR) content,"[1]; 0 μM ascorbic acid, time 30 min, 38° C.",90.71 µmol
same,Glucoraphanin (GR) content,"[1]; 0 μM ascorbic acid, time 45 min, 38° C.",89.44 µmol
same,Glucoraphanin (GR) content,"[1]; 0 μM ascorbic acid, time 60 min, 38° C.",87.79 µmol
same,Increase of reaction rate relative to absence of ascorbic acid,"[1]; 600 μmoles/Liter ascorbic acid, 38° C.",13 fold
same,Yield of sulforaphane versus ascorbic acid concentration,myrosinase [2],direct correlation between larger yield of sulforaphane and higher concentrations of ascorbic acid
"C[S+]([O-])CCCC/C(=N\OS(=O)(=O)O)S[C@@H]1O[C@H](CO)[C@@H](O)[C@H](O)[C@H]1O (stereo partly drawn) [glucoraphanin, 4-methylsulfinylbutyl glucosinolate]",Conversion of glucoraphanin to sulforaphane (amount consumed versus amount produced),myrosinase [3],equimolar conversion of glucoraphanin to sulforaphane
"CC[C@H](/C=C/[C@@H](C)[C@H]1CC[C@H]2[C@@H]3CC=C4C[C@@H](O)CC[C@]4(C)[C@H]3CC[C@]12C)C(C)C [stigmasterol, 3β-stigmasta-5,22,-dien-3-ol]","Pro-inflammatory and matrix degradation mediators (MMP-3, MMP-13, ADAMTS-4, PGE2)",chondrocytes,inhibits several pro-inflammatory and matrix degradation mediators
